# What was measured:
# [1] = Hydrogen peroxide (H2O2) scavenging activity, ABTS-peroxidase system; settings: pH 5.0, absorbance at 405 nm
# Description: Hydrogen peroxide (H2O2) scavenging activity was measured in a 2,2-azinobis(3-ethylbenzthiazolin)-6-sulfonicacid (ABTS)-peroxidase system according to the Muller method. Each sample was diluted at varying concentrations. 80 μL of each sample solution, 20 μL of 10 mM H2O2 and 100 μL of phosphate buffer (pH 5.0, 0.1 M) were added to a 96-well plate and reacted at 37° C. for 5 minutes. Then, 30 μL of 1.25 mM ABTS and 30 μL of 1 U/mL peroxidase were added thereto and reacted at 37° C. for 10 minutes, and the absorbance at 405 nm was measured using an enzyme-linked immunosorbent assay (ELISA) reader.
# ICR mice = assay: Morris water maze test, scopolamine-induced memory damage; format: in vivo, mouse; settings: memory acquisition test for 4 days; scopolamine 1 mg/kg i.p.; test samples oral (extract 3, 10, 30, 100, 200 mg/kg)
# Description: To observe the cell-protecting effect and cognitive function-improving effect of the Plumula nelumbinis extract in vivo using a Morris water maze test, International Cancer Research (ICR) mice having an average weight of about 30 g were purchased and acclimated to the environment of the laboratory for 1 week before use in the experiment. The animal breeding room was maintained at room temperature (ca. 22±2° C.) with 12 h light (200-300 lux)/12 h dark cycles. The animals had free access to food (i.e., 22.1% or more crude protein, 8.0% or less crude fat, 0.6% or more calcium, and 0.4% or more phosphorus; Samyang Corp., Korea) and water. The animals were divided into a control group administered with the same amount of injectable saline without scopolamine (Sigma Aldrich), and a group administered with scopolamine. The group administered with scopolamine was treated with 3, 10, 30, 100 and 200 mg/kg of a 80% methanol extract of Plumula nelumbinis. As a positive control, donepezil was used, which is a cholinesterase inhibitor-based drug approved by the FDA, and is used for the treatment of mild, moderate, or severe Alzheimer's disease and for the alleviation of vascular dementia (i.e., dementia involving cerebrovascular disease).
# Each of the test samples and the positive control drug was suspended in injectable sterile water and administered at a unit dose of 10 ml/kg. Scopolamine (1 mg/kg) was administered intraperitoneally each day for 4 days, and the test sample and the positive control drug were administered orally (FIGS. 8A and 8B).
# In the water maze test, a learning trial was performed on the day before administration of the extract, and then a memory acquisition test was repeated for 4 days. In the learning trial, each test animal was placed into a water pool ([…]) at one of four release points and allowed to find a platform ([…]) by swimming for 60 seconds. […]
# During the memory acquisition test, 1 mg/kg of scopolamine was administered intraperitoneally once a day for 4 days at 60 minutes after administration of the Plumula nelumbinis extract. […] The cognitive ability-improving effect was evaluated by measuring the average swimming time (sec) taken for the test animal to find the platform (sec).
# After the learning trial for 1 day, scopolamine was administered to cause damage to cognitive function (memory), and the Moths water maze test was performed to examine the cognitive function-improving effect of the extract. In the memory acquisition test performed over 4 days, the cognitive function-improving effect of the extract was evaluated based on a decrease in each of the average swimming times taken to find the platform and the swimming distance. […]
# [2] = DPPH radical scavenging activity; settings: 30 minutes in the dark, absorbance at 517 nm
# Description: The test sample was weighed, dissolved in methanol or ethanol, and then filtered through a 0.45-μm filter. The prepared sample was serially diluted. Varying concentrations of 150 μl of each diluted sample were added to a 96-well micro plate, followed by addition of DPPH. The 96-well micro plate was placed in a dark room and allowed to stand for 30 minutes. The absorbance at 517 nm was measured.
Structure (SMILES),hydrogen peroxide (H2O2) scavenging IC50 [1] [µg/mL],average swimming distance (ICR mice),average swimming time taken to find the platform (ICR mice),DPPH radical scavenging IC50 [2] [µg/mL]
"COc1ccc(O)c(C(C)(C)C)c1 [butylated hydroxy anisole (BHA), butylated hydroxy anisole]",160.58,–,–,–
COc1cc2c(cc1OC)C(=O)C(CC1CCN(Cc3ccccc3)CC1)C2 (stereo not drawn) [donepezil],–,gradual decreases,gradual decreases,–
CN1[C@@H]2C[C@@H](OC(=O)[C@H](CO)c3ccccc3)C[C@H]1[C@@H]1O[C@@H]12 [scopolamine],–,increased rather than decreased,increased rather than decreased,–
"O=C1O[C@H]([C@@H](O)CO)C(O)=C1O [vitamin C, ascorbic acid]",–,–,–,27.73
